The test concerns normal human fibroblasts (NHDF 784). The test is described as follows: Synthesis of collagen by human fibroblast cultures (radiolabelled proline incorporation). It counts as cell-based. The following applies: 72 h incubation, 1/40 dilutions of stock preparations, vitamin C 20 μg/ml, FIG. 4. As for the experimental part: The effect of a composition of the present invention (comprising two anti-glycosylation agents with magnesium ascorbyl phosphate) on the stimulation of the synthesis of collagen and the limitation of the formation of irreversible cross linkages between the collagen fibrils, were evaluated in vitro on human fibroblast cells. […] Glucose was tested in a final concentration of 0.1 percent, which is equivalent to doubling the quantity of 'cold' glucose of the medium. […] They contained free radioactivity and radioactivity incorporated in the soluble cellular and extracellular proteins. […] The proteins of the soluble fraction were then precipitated by 0.3 volume of 10 percent w/v trichloroacetic acid (TCA), and then washed twice with 3 percent TCA (removal of free radioactivity). […] Aliquots were taken to count the incorporated radioactivity in the proteins and a final precipitation was carried out with TCA to separate the material digested by collagenase (collagenic origin) from the collagenase-insensitive material. The incorporated radioactivity was counted by liquid scintillation after cumulation of the soluble/insoluble protein fractions, in an LKB 1211 Rackbeta counter.

`O=C1O[C@H]([C@@H](O)CO)C([O-])=C1OP(=O)([O-])[O-].O=C1O[C@H]([C@@H](O)CO)C([O-])=C1OP(=O)([O-])[O-].[Mg+2].[Mg+2].[Mg+2]` [magnesium ascorbyl phosphate]: the “synthesis of collagen (quantity of radiolabelled proline in the neosynthesized collagen)” value is on record as “significantly increased”.
For `O=C1O[C@H]([C@@H](O)CO)C(O)=C1O` [vitamin C], the “synthesis of collagen (quantity of radiolabelled proline in the neosynthesized collagen)” value is “significantly increased”.

For the origin of these results see patent US20020025303A1, “COSMETIC AND/OR DERMATOLOGICAL COMPOSITION CONTAINING A DERIVATIVE OF METHYLATED SILANOL AND A DERIVATIVE OF HYDROLYSED PLANT PROTEIN” (priority 1997, published 2002).
